Test system in one data set: not listed separately
Nature of the data set: Morpholine test: depression of partial vapour pressure of morpholine relative to Raoult's Law (headspace GC). The note with it: material 1 g + morpholine 0.25 g, 37° C., 30 minutes.
As to `CC(=O)c1ccc2ccccc2c1` [β-Methyl naphthyl ketone], the “Raoult variance ratio (RVR)” value was 0.96.

With `CCOc1cc(C=O)ccc1O` [Ethyl vanillin], the “Raoult variance ratio (RVR)” value came out at 1.43.

Regarding `CCCCCCC(CCOC(C)=O)OC(C)=O` (stereo not drawn) [Nonanediol-1,3-diacetate], the “Raoult variance ratio (RVR)” value is reported as 1.17.

With i-Nonyl formate, the “Raoult variance ratio (RVR)” value is 1.49.

Regarding `CCC(C)(C)C1CCC(=O)CC1` [p-t-Amyl cyclohexanone], the “Raoult variance ratio (RVR)” value amounted to 1.10.

Take `CC1(C)CCCC2(C)C1CCC1(C)OCCC12` (stereo not drawn) [3a-Methyl-dodecahydro-6,6,9a-trimethylnaphtho(2,1-b)furan]: the “Raoult variance ratio (RVR)” value is 1.30.

Regarding `Cc1ccc(C(C)C)cc1O` [Carvacrol], the “Raoult variance ratio (RVR)” value is reported as 1.43.

On to `CCCCCC1CCC(=O)O1` (stereo not drawn) [Nonanolide-1:4], for which the “Raoult variance ratio (RVR)” value is 0.87.

`CC(C)CCOC(=O)c1ccccc1O` [iso-Amyl salicylate]: the “Raoult variance ratio (RVR)” value turned out to be 1.24.

Consider Dimyrcetol, for which the “Raoult variance ratio (RVR)” value is on record as 1.22.

Regarding `O=c1ccc2ccccc2o1` [Coumarin], the “Raoult variance ratio (RVR)” value stood at 1.22.

For the compound `OCCc1ccccc1` [Phenylether alcohol], the “Raoult variance ratio (RVR)” value is given as 1.24.

For the compound `C/C=C\c1ccc(O)c(OC)c1` [iso-Eugenol], the “Raoult variance ratio (RVR)” value came out at 1.48.

Regarding `CC(=O)OC1CCCCC1C(C)(C)C` (stereo not drawn) [o-t-Butylcyclohexyl acetate], the “Raoult variance ratio (RVR)” value was determined as 1.08.

With Tetrahydromuguol, the “Raoult variance ratio (RVR)” value is given as 1.23.

On to i-Nonyl acetate, for which the “Raoult variance ratio (RVR)” value came out at 0.83.

`O=C(OCc1ccccc1)c1ccccc1O` [Benzyl salicylate]: the “Raoult variance ratio (RVR)” value is on record as 1.58.

With `CCCCCCCC1CCCC1=O` (stereo not drawn) [2-n-heptylcyclopentanone], the “Raoult variance ratio (RVR)” value stood at 1.05.

Consider `CC(=O)OC1CCC(C(C)(C)C)CC1` (stereo not drawn) [p-t-Butylcyclohexyl acetate], for which the “Raoult variance ratio (RVR)” value came to 0.98.

On to `CCOC(=O)c1ccccc1C(=O)OCC` [Diethyl phthalate], for which the “Raoult variance ratio (RVR)” value came to 1.20.

For a further data set, the target named is T1, lipoxidase (ECl.13.1.13) (Glycine max, UniProt P08170).
T1 sequence (P08170 1-839): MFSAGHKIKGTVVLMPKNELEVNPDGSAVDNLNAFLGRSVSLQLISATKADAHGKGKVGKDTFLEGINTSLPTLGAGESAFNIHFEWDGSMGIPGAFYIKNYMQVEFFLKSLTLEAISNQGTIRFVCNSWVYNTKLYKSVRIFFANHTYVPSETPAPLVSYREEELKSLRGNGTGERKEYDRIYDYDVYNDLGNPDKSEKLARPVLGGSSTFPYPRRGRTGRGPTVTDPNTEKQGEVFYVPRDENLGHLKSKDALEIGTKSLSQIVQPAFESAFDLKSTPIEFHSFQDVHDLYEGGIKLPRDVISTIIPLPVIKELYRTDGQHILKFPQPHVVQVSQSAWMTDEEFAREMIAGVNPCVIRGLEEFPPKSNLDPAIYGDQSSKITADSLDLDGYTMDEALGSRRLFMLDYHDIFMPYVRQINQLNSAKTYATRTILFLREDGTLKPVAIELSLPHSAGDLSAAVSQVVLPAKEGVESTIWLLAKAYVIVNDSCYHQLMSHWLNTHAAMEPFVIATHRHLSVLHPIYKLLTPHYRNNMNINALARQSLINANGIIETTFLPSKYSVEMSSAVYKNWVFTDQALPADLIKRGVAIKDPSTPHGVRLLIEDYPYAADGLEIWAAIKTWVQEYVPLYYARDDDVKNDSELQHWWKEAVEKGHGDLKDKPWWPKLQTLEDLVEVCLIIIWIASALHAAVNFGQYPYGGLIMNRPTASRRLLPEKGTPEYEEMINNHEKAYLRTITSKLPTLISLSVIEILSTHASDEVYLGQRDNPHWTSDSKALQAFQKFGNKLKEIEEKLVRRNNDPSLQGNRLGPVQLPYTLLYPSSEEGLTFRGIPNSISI
Nature of the data set: Lipoxidase test: inhibition of lipoxidase-catalysed oxidation of linoleic acid to hydroperoxide (234 nm). Particulars: 0.5% by weight solution of material in ethanol as test substrate solvent; pH 9.0 borate buffer. In kind it is biochemical.
As for i-Nonyl formate, the “lipoxidase inhibiting capacity (LIC), % inhibition” value turned out to be 19%.

With Dimyrcetol, the “lipoxidase inhibiting capacity (LIC), % inhibition” value stood at 16%.

Take Tetrahydromuguol: the “lipoxidase inhibiting capacity (LIC), % inhibition” value is given as 24%.

Take i-Nonyl acetate: the “lipoxidase inhibiting capacity (LIC), % inhibition” value was found to be 50%.

The values are drawn from patent US4469848A, “Deodorant product for surface treatment” (priority 1978, dated 1984).
